From ChEMBL document CHEMBL5230104, “Systemic review on B-RafV600E mutation as potential therapeutic target for the treatment of cancer” (Eur J Med Chem, 2020)

Key:
[1] = tested on: COLO 205; experiment: Antitumor activity against human COLO 205 cells xenografted in mouse model assessed as tumor growth inhibition at 30 mg/kg/day relative to control; format: functional; design: scale not given: the % may be the effect or the level left
[2] = tested on: WM 266-4; experiment: Antiproliferative activity against human WM266-4 cells by CellTiter-Glo Luminescent Cell Viability Assay; format: functional, cell-based
[3] = tested on: A-375; experiment: Antiproliferative activity against human A-375 cells by CellTiter-Glo Luminescent Cell Viability Assay; format: functional, cell-based
[4] = tested on: COLO 205; experiment: Antiproliferative activity against human COLO 205 cells by CellTiter-Glo Luminescent Cell Viability Assay; format: functional, cell-based
[5] = tested on: COLO-829; experiment: Antiproliferative activity against human COLO-829 cells by CellTiter-Glo Luminescent Cell Viability Assay; format: functional, cell-based
[6] = tested on: A-375; experiment: Antitumor activity against human A-375 cell xenografted in F344 nude rat model assessed as tumor growth inhibition by measuring T/C ratio at 24.1 mg/kg relative to control; format: functional
[7] = tested on: A-375; experiment: Antitumor activity against human A-375 cell xenografted in F344 nude rat model assessed as tumor growth inhibition by measuring T/C ratio at 9.7 mg/kg relative to control; format: functional
[8] = tested on: SK-MEL-2; experiment: Antiproliferative activity against human SK-MEL-2 cells harbouring wild type B-Raf by SRB assay; format: functional, cell-based
[9] = tested on: HMV-2 cell line; experiment: Antiproliferative activity against human HMV-2 cells harbouring B-Raf G469V mutant by SRB assay; format: functional, cell-based
[10] = tested on: CHL-1; experiment: Antiproliferative activity against human CHL-1 cells harbouring wild type B-Raf by SRB assay; format: functional, cell-based
[11] = tested on: A-375; experiment: Antiproliferative activity against human A-375 cells harbouring B-Raf V600E mutant by SRB assay; format: functional, cell-based
[12] = tested on: Malme-3M; experiment: Antiproliferative activity against human Malme-3M cells harbouring B-Raf V600E mutant by SRB assay; format: functional, cell-based
[13] = tested on: HT-144; experiment: Antiproliferative activity against human HT-144 cells harbouring B-Raf V600E mutant by SRB assay; format: functional, cell-based
[14] = tested on: HMCB cell line; experiment: Antiproliferative activity against human HMCB cells harbouring wild type B-Raf by SRB assay; format: functional, cell-based
[15] = tested on: M14; experiment: Antiproliferative activity against human M14 cells; format: functional, cell-based
[16] = tested on: Melanoma cell line; experiment: Antiproliferative activity against human Melanoma cell line; format: functional, cell-based
[17] = tested on: SK-MEL-28; experiment: Antiproliferative activity against human SK-MEL-28 cells assessed as inhibition of cell viability; format: functional, cell-based
[18] = tested on: A-375; experiment: Antitumor activity against human A-375 cells xenografted in mouse model assessed as tumor growth inhibition at 50 mg/kg, iv relative to control; format: functional; design: scale not given: the % may be the effect or the level left
[19] = tested on: A-375; experiment: Antiproliferative activity against human A-375 cells assessed as inhibition of cell viability; format: functional, cell-based
[20] = biological target: Serine/threonine-protein kinase B-raf (Homo sapiens, UniProt P15056, V600E); experiment: Inhibition of B-Raf V600E mutant (unknown origin)
[21] = tested on: Malme-3M; experiment: Antiproliferative activity against human Malme-3M cells assessed as inhibition of cell viability; format: functional, cell-based
[22] = In vivo inhibition of B-Raf in human A-375 cells xenografted in mouse model assessed as tumor growth inhibition; format: functional, cell-based

CCCS(=O)(=O)Nc1ccc(F)c(C(=O)c2c[nH]c3ncc(Cl)cc23)c1F [PLX-4720]
Activity [1]: 90% | IC50 [2]: 1500 nM | IC50 [3]: 500 nM | IC50 [4]: 310 nM | IC50 [5]: 1700 nM

N#Cc1c(Oc2ccc(F)c(NC(=O)Cc3cccc(C(F)(F)F)c3)c2)ccc2nc(NC(=O)C3CC3)sc12
T/C [6]: 12.1% | T/C [7]: 2.1% | IC50 [8]: 60 nM | IC50 [9]: 200 nM | IC50 [10]: 2.07 nM | IC50 [11]: 160 nM | IC50 [12]: 50 nM | IC50 [13]: 110 nM | IC50 [14]: 350 nM

Cc1ccc(NC(=O)c2cccc(C(C)(C)C#N)c2)cc1Nc1ccc2ncn(C)c(=O)c2c1
IC50 [15]: 100 nM | IC50 [16]: 10000 nM

CN(C)CCOc1ccc(-c2n/c(=c3\ccc4c(c3)CCC=4N=O)c(=C3C=CNC=C3)[nH]2)cc1
IC50 [17]: 120 nM | Activity [18]: 80% | IC50 [19]: 370 nM | IC50 [20]: […] | IC50 [21]: 150 nM

OCCn1cc(-c2ccc3c(c2)CC/C3=N/O)c(-c2ccncc2)n1
IC50 [22]: 59 nM
